From patent US5190921A, “Amino acids and peptides having a modified tyrosine residue, their preparation and their application as medicaments” (Institut National de la Sante et de la Recherche Medicale …, priority 1988, dated 1993)
*1 amine or outer side, *2 acyl side, *3 side chain or, on linkers, in order; H or OH if unused. Where a SMILES comes first, the peptide text is derived from it. [ ]: non-standard residue; d: D form. The star is where a group is joined. X1 = CCCC[C@@H](NC(=O)CC(=O)*)NC(=O)[C@H](Cc1ccc(CS(=O)(=O)O)cc1)NC(C)=O; Phe(4-CH2SO3H) = N[C@@H](Cc1ccc(CS(=O)(=O)O)cc1)C(=O)O; X2 = O=C([C@@H](Cc1ccc(CS(=O)(=O)O)cc1)N[*:1])[*:2]; sY = N[C@@H](Cc1ccc(OS(=O)(=O)O)cc1)C(=O)O; NMeNle = CCCC[C@H](NC)C(=O)O; Nle = CCCC[C@H](N)C(=O)O; Boc = CC(C)(C)OC(=O)*

Tests used:
[1] = Enzymatic stability in crude rat brain membranes; format: in vitro ADME; settings: enzymatic degradation in crude rat brain membranes; read-out: 1/2 life time
Procedure: The resistance of these analogs to enzymatic degradation was tested in crude rat brain membranes which contain at the same time aminopeptidasic, thiolproteasic and encephalinasic activity [Matsas et al. Febs. Lett. 175, 124 (1984); McDermott et al. Neurochem. Int. 5, 641 (1983)]. These compounds were tested according to the protocol previously described by Durieux et al. Neuropeptides 7, 1, (1986).

[2] = molecular target: guinea pig pancreatic acini; experiment: Pancreatic amylase liberation test; format: cell-based; settings: acini incubated 30 minutes at 37° C.; mean of three experiments in triplicate; read-out: Amylase secretion from guinea pig pancreatic acini, Agonist activity EC50
Procedure: Amylase secretion is measured after incubation of pancreatic acini for 30 minutes at 37° C. in the presence of the products under study, according to the experimental protocol described by Peikin et al., Am. J. Physiol., 235 (6), E 743-E 749, (1978). Amylase activity is determined using Phadebas reagent (Pharmacia), according to the method described by Ceska et al., Experientia, 25, 555 (1969). The values indicated in this table represent the mean of three separate experiments, each carried out in triplicate.

[3] = test system: guinea pig ileum; experiment: Contraction-producing activity on guinea pig ileum; settings: isolated ileum strips, Tyrode's solution, 37° C.; mean ± s.e.m. of three experiments; read-out: Contraction-producing activity on guinea pig ileum, Agonist activity EC50
Procedure: This test is carried out according to the method described by Hutchinson et al., Eur. J. Pharmacol., 69, 87 (1981). Strips from the terminal portion of the guinea pig ileum are rapidly sampled and fixed in the tank of an isometric gauge containing 25 cm^3 of Tyrode's solution. The solution is maintained at 37° C. while passing through it, bubble by bubble, a gas composed of 95% oxygen and 5% CO2. The compounds under study are tested in the conditions described by Ruiz-Gayo et al., Peptides, 6, 415, (1985).
The values indicated in this table represent the mean (± s.e.m.) of three separate experiments.

| Compound | half-life [1] [h] | EC50 [2] [nM] | EC50 [3] [nM] |
| --- | --- | --- | --- |
| CSCC[C@H](NC(=O)[C@H](Cc1ccc(OS(=O)(=O)O)cc1)NC(=O)[C@@H](N)CC(=O)O)C(=O)NCC(=O)N[C@@H](Cc1c[nH]c2ccccc12)C(=O)N[C@@H](CCSC)C(=O)N[C@@H](CC(=O)O)C(=O)N[C@@H](Cc1ccccc1)C(N)=O [CCK8, Asp-Tyr(SO3 H)-Met-Gly-Trp-Met-Asp-Phe-NH2, reference compound] | 0.75 |  |  |
| CCCC[C@H](NC(=O)[C@H](Cc1ccc(CS(=O)(=O)O)cc1)NC(C)=O)C(=O)NCC(=O)N[C@@H](Cc1c[nH]c2ccccc12)C(=O)N[C@@H](CCCC)C(=O)N[C@@H](CC(=O)O)C(=O)N[C@@H](Cc1ccccc1)C(N)=O [Example 13, Ac-L-Phe(p-CH2 SO3 Na)-NLe-Gly-Trp-NLe-Asp-PheNH2] (Ac-[Phe(4-CH2SO3H)][Nle]GW[Nle]DF-NH2) |  | 0.33 | 3.8 |
| CCCC[C@H](NC(=O)[C@H](Cc1c[nH]c2ccccc12)NC(=O)CNC(=O)[C@H](CCCC)NC(=O)[C@@H](Cc1ccc(CS(=O)(=O)O)cc1)NC(C)=O)C(=O)N[C@@H](CC(=O)O)C(=O)N[C@@H](Cc1ccccc1)C(N)=O [Example 14, Ac-D-Phe(p-CH2 SO3 Na)-NLe-Gly-Trp-NLe-Asp-PheNH2] (Ac-[X2][Nle]GW[Nle]DF-NH2) |  | 1.6 | 18 |
| CCCC[C@@H](NC(=O)CC(=O)N[C@@H](Cc1c[nH]c2ccccc12)C(=O)N(C)[C@@H](CCCC)C(=O)N[C@@H](CC(=O)O)C(=O)N[C@@H](Cc1ccccc1)C(N)=O)NC(=O)[C@H](Cc1ccc(OS(=O)(=O)O)cc1)NC(=O)OC(C)(C)C [Example 15, Boc-Tyr(SO3 Na)-gNle-mGly-Trp-(N-Me)Nle-Asp(Na)-Phe-NH2] | > 3 | 0.35 | 1 |
| CCCC[C@H](NC(=O)[C@H](Cc1ccc(OS(=O)(=O)O)cc1)NC(=O)OC(C)(C)C)C(=O)NCC(=O)N[C@@H](Cc1c[nH]c2ccccc12)C(=O)N(C)[C@@H](CCCC)C(=O)N[C@@H](CC(=O)O)C(=O)N[C@@H](Cc1ccccc1)C(N)=O [Example 16, Boc-Tyr(SO3 Na)-Nle-Gly-Trp-(N-Me)Nle-Asp(Na)-Phe-NH2] (Boc-[sY][Nle]GW[NMeNle]DF-NH2) | > 4.17 | 377 | > 1000 |
| CCCC[C@@H](NC(=O)CC(=O)N[C@@H](Cc1c[nH]c2ccccc12)C(=O)N(C)[C@@H](CCCC)C(=O)N[C@@H](CC(=O)O)C(=O)N[C@@H](Cc1ccccc1)C(N)=O)NC(=O)[C@H](Cc1ccc(CS(=O)(=O)O)cc1)NC(C)=O [Example 18, Ac-L-Phe(p-CH2 SO3 Na)-gNle-mGly-Trp-(N-Me)Nle-Asp-Phe-NH2] (X1-W[NMeNle]DF-NH2) | > 4.17 | 642 | > 1000 |
